The values below come from patent US12138320B2, “Composition and methods for tumor imaging and treatment” (The University of Chicago, priority 2020, dated 2024).

Series [1] can be described thus: Radiochemical stability by radioactive HPLC. It counts as physicochemical. The conditions noted are these: physiologic buffers; PBS containing 10% ethanol, up to 120 min. How it is done:
Stability analyses of HPLC-purified […]: Radiochemical stability testing of the synthesized [^18F]JW199, was performed with multiple HPLC injections using increasing amounts of activity to keep the peak heights roughly similar. 64 μCi was injected 83 minutes post synthesis, and this was considered the t=0 time point. The subsequent injection was 79 μCi at 30-minutes, followed by three more injections of 86, 106, and 117 μCi at 60, 90, and 120-minutes respectively.

Series [2] has as its target T1, NCEH1 (Mus musculus, UniProt Q8BLF1).
T1 construct: For murine proteomes, mouse tissues were Dounce-homogenized on ice in cold PBS; from tissue; host or cells: athymic nude mice: heart, kidney, lung, liver, brain, spleen and other organs
T1 sequence (Q8BLF1 1-408): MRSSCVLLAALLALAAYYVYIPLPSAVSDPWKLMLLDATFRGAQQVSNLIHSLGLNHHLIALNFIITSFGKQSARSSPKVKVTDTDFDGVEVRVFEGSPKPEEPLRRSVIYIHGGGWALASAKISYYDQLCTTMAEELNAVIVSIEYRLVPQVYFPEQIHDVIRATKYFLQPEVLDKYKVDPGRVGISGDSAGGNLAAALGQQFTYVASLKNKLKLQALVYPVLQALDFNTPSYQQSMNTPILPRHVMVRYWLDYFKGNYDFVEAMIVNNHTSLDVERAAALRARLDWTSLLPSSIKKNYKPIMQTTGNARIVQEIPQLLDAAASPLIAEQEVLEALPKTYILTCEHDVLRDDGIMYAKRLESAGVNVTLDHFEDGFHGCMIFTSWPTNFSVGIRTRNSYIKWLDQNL
Nature of the series: In vivo microPET/CT imaging and ex vivo biodistribution in nude mice. How it is done:
In vivo microPET/CT imaging: All imaging was performed by the Integrated Small Animal Imaging Research Resource (iSAIRR) at the University of Chicago (Chicago, Illinois, United States of America) on a β-Cube and X-Cube (Molecubes NV, Ghent, Belgium). […] MicroCT images were acquired using the general purpose protocol, with energy of 50 KeV and a tube current of 100 μA. Respiration rate and body temperature of the animal were constantly monitored during the entire scanning period with the p-Cube and X-Cube onboard monitoring system. A 1 hr dynamic PET acquisition was started 2 hours after [^18F]JW199 injection. Dynamic reconstruction was performed for 6 frames of 10 minutes each using a three-dimensional (3D) OSEM algorithm with 400 μm isometric voxel size. For competition studies, mice were pretreated with either 80 mg/kg JW480 or vehicle (polyethylene glycol 300 (PEG300)) via oral gavage, followed 4 hours later by dosing with [^18F]JW199 and imaging as described. For the MDA-MB231 study, [^18F]JW199 injection was followed immediately by dynamic PET acquisition (90 min) and microCT scanning as detailed above. Dynamic PET image reconstruction included 9 frames of 10 minutes each.
Dynamic reconstruction was performed using a three-dimensional OSEM algorithm with 400 μm isometric voxel size. All image analysis was performed with software sold under the tradename VivoQuant™ (inviCRO, LLC, Boston, Massachusetts, United States of America). 3D regions of interest (ROIs) were drawn and standardized uptake values (SUVs) and percent injected dose per cubic centimeter of tissue (% ID/cc) were calculated for each ROI and time point. % ID/cc was calculated as a ratio of tissue radioactivity concentration (mCi/g) at time of scan to total injected activity (millicurie (mCi)) at time of scan.
Ex vivo Biodistribution: All animals were sacrificed at 3 hours post [^18F]JW199 injection and organs and tumors were immediately harvested. All tissues were weighed, and radioactivity was counted using a Cobra II […] (PerkinElmer, Waltham, Massachusetts, United States of America) calibrated for [^18F] energy. The concentration of radioactivity in tumor, organs, and tissues was determined as percentage of injected dose per cubic centimeter of tissue (% ID/cc).

Turning to `CC(C)c1ccccc1OC(=O)NCCc1ccc(OCC[18F])cc1` [[^18F]JW199, fluorine-18-labeled 2-isopropylphenyl-(4-(2-fluoroethoxy)phenethyl)carbamate], the chemical stability entry in series [1] was “chemically stable”. Moreover, in series [2] (during the entire imaging procedure), the “PET signal kinetics in target organs” value was “quickly reached and maintained constant levels”. For the same compound, the “PET signal in the brain” value in series [2] (i.v.) is recorded as “low PET signal”. For the same compound, the CNS penetration result in series [2] (i.v., inferred from brain PET signal) is reported as “low CNS penetration”. Further, the “uptake in adipose depots, liver and bone” value in series [2] (i.v., tissues with low Nceh1 mRNA levels) is listed as “relatively low uptake”. Moreover, the “PET signal accumulation in kidney, heart and lung” value in series [2] (i.v., ~100 μCi, tissues with relatively high Nceh1 expression) is reported as “Significant signal accumulation”. The “accumulation in mouse tissues” value in series [2] (mouse, in vivo) is listed as “rapid, NCEH1-dependent accumulation”.
